Here are results for six compounds from PMC7024204, “Synthesis, Crystal Structure, and Biological Activity of a Multidentate Calix[4]arene Ligand Doubly Functionalized by 2-Hydroxybenzeledene-Thiosemicarbazone” (Molecules, 2020).

Data set [1] concerns MG-63 cell line. Put plainly: MTT cytotoxicity assay. Type of data set: cell-based, human. To be noted: for IC50: Homo sapiens, MG-63, MTT, 48 h, read-out: In vitro cytotoxic activity IC50; for anti-cancer effect: MG-63, especially at 2.5–20 μg/mL. The procedure: (§1) The colorimetric MTT assay, introduced by Mossmann, was used for the evaluation of the anti-cancer activity of our synthesized compounds against Saos-2 and MG-63 cell lines (human bone cancer cells). These cells were obtained from the Pasteur Institute of Iran, Tehran, Iran and maintained in RPMI 1640 medium supplemented with 10% FBS and 1% benzylpenicillin/streptomycin. […] The cells without treatment were considered as the control. After 48 h, the medium was removed and replaced with 200 μL of fresh medium containing 100 μg mL^−1 MTT powder and incubated for a further 4 h. The medium was then withdrawn and 100 μL of DMSO was added to dissolve the formazan crystals inside the cells. The absorbance of solubilized formazan was detected at 570 nm with the reference wavelength of 630 nm using an ELISA plate reader (Stat Fax, 2100, Awareness Technology Inc., Palm City, FL, USA). The viability of cells in each well was calculated by the following formula:(1) viability of cells (%)=mean absorbance of sample/mean absorbance of control×100.

Data set [2] relates to Saos-2 cell line. Put plainly: MTT cytotoxicity assay. It is filed as cell-based, human. Particulars: for IC50: Homo sapiens, Saos-2, MTT, 48 h, read-out: In vitro cytotoxic activity IC50; for anti-cancer effect: Saos-2, especially at 2.5–20 μg/mL. The method, then: as §1
The test system of data set [3] is E. coli (ATCC 25922). Put plainly: Broth microdilution (serial double dilution) MIC/MBC. Type of data set: cell-based, Escherichia coli. To be noted: for MIC / MBC: Escherichia coli; for MIC: ATCC25922, 24 h, 37 °C, micro-broth dilution; for MBC: ATCC25922, micro-broth dilution. The method, then:
(§2) S. aureus (ATCC® 29213™), B. subtilis (ATCC® 6633™), E. coli (ATCC® 25922™), P. aeruginosa (ATCC® 27853™), C. albicans (ATCC® 10231™), and C. glabrata (ATCC® 2001™) were cultured onto sterile Mueller-Hinton agar plates, and incubated at 37 °C for 24 h. After incubation, a single colony was selected to inoculate a sterile tube containing 2 mL of sterile normal saline to match the turbidity of a 0.5 McFarland standard (10^8 cfu/mL). Further dilution was done with sterile normal saline to 10^5 cfu/mL before incubation.
(§3) Serial dilution of the synthesized compounds suspension in DMSO (2000–15.62 μg/mL) was done in a sterile 96-well plate. Then, 20 μL of an overnight bacterial and fungal suspension and 180 μL of the compounds suspension in MHB (and 1% glucose for fungal strains) were mixed in each well. The final concentration of DMSO was 10%. After 24 h of incubation at 37 °C, the first concentration with no bacterial growth is regarded as the minimum inhibitory concentration (MIC). Controls (microorganism strain in MHB without chemical and MHB alone) were included in each measurement. Aliquots of 5 μL from wells in which no growth was observed were spotted onto Mueller–Hinton agar plates to determine the minimum bactericidal concentration (MBC) values. The MBC was read as the lowest concentration with no growth after 24 h of incubation.

For data set [4], the system named is P. aeruginosa (ATCC 27853). The data set is described as above. It is filed as cell-based, Pseudomonas aeruginosa. Particulars: for MIC: ATCC27853, 24 h, 37 °C, micro-broth dilution. The procedure:
as §2, §3

In data set [5] the test system is S. aureus (ATCC 29213). Described as above. It is filed as cell-based. Particulars: Staphylococcus aureus. The method, then:
as §2, §3

Data set [6] deals with B. subtilis (ATCC 6633). Described as above. Type of data set: cell-based. Particulars: Bacillus subtilis; for MIC: ATCC6633, 24 h, 37 °C, micro-broth dilution. The procedure: as §2, §3
Data set [7] has as its system C. albicans (ATCC 10231). The data set can be described thus: Broth microdilution (serial double dilution) MIC/MBC. Type of data set: cell-based, Candida albicans. To be noted: for MIC: 37 °C, micro-broth dilution. The method, then:
as §2, §3
In general terms: Broth dilution looks for growth in wells or tubes with falling amounts of substance.

Data set [8] deals with Saos-2 cells. Put plainly: DAPI staining, morphology of cell nuclei. It is filed as cell-based, human. To be noted: Saos-2, 48 h exposure at IC50. The method, then: To visually study the apoptotic effects of the synthesized compounds (L and its Co, Ni, Cu, and Zn complexes), the 4′,6-diamidino-2-phenylindole (DAPI) staining assay was performed according to the literature procedure. Briefly, Saos-2 cells were seeded in six-well plates (5 × 10^4 cells per well) and incubated at 37 °C for 24 h. After the growth of the cells, the culture media were replaced by fresh media containing L and its metal derivatives (sterile filtered through 500 nm) at their half-maximal inhibitory growth concentration (IC50). Cells receiving no treatment were considered as the control group. After 48 h, the cells were washed three times with fresh PBS (pH 7.4) to remove any chemical compounds. Subsequently, the cells were fixed with 4 wt% paraformaldehyde for 15 min at room temperature. Afterwards, the cells were washed three times with PBS and permeabilized with Triton X-100 (0.1% w/v) for 5 min. The cells were washed again with PBS and stained with 300 ng mL^−1 DAPI for 15 min. DNA condensation and fragmentation in apoptotic cells were evaluated under a fluorescence microscope.

Data set [9] has as its system C. glabrata (ATCC 2001). Put plainly: Broth microdilution (serial double dilution) MIC/MBC. Type of data set: cell-based, Candida glabrata. Particulars: 24 h, 37 °C, micro-broth dilution. The procedure: as §2, §3
Data set [10] relates to C. albicans (ATCC 10231). On the set-up: method as in PMID 31649917. To be noted: cited from earlier work.
Data set [11] relates to Saos-2 cell line. On the set-up: method as in PMID 31649917. Particulars: Saos-2, thiosemicarbazide ligand and metal derivatives; cited from earlier work.

Converted amounts (≈) assume the structure as drawn. Read-outs that look alike come from different tables or passages of the source.

As for `COc1cccc2c1C(=O)c1c(O)c3c(c(O)c1C2=O)C[C@@](O)(C(=O)CO)C[C@@H]3O[C@H]1C[C@H](N)[C@H](O)[C@H](C)O1` [DOX, doxorubicin], in data set [1], the IC50 amounted to 10.1 µg/mL (≈ 18.6 µM) and the “anti-cancer effect” value is listed as “strong anti-cancer effects”. In [2], the IC50 stood at 2.1 µg/mL (≈ 3.86 µM) and the “anti-cancer effect” value is given as “strong anti-cancer effects”.

On to `CNC(C)C1CCC(N)C(OC2C(N)CC(N)C(OC3OCC(C)(O)C(NC)C3O)C2O)O1` (stereo not shown) [Gentamicin], for which the MIC was 0.5 µg/mL (≈ 1.05 µM) in data set [3]; 2 µg/mL (≈ 4.19 µM) in data set [4] (Pseudomonas aeruginosa); 0.12 µg/mL (≈ 0.251 µM) in data set [5] (ATCC29213, 24 h, 37 °C, micro-broth dilution); 2 µg/mL (≈ 4.19 µM) in [6]. Moreover, the MBC in [3] came out at 0.5 µg/mL (≈ 1.05 µM); in data set [4] (Pseudomonas aeruginosa, ATCC27853, micro-broth dilution) it was 2 µg/mL (≈ 4.19 µM); in data set [5] (ATCC29213, micro-broth dilution), 0.25 µg/mL (≈ 0.523 µM); in data set [6] (ATCC6633, micro-broth dilution), 2 µg/mL (≈ 4.19 µM).

For `CC(C)(C)c1cc2c(O)c(c1)Cc1cc(C(C)(C)C)cc(c1OCCNC(=S)NN=Cc1ccccc1O)Cc1cc(C(C)(C)C)cc(c1O)Cc1cc(C(C)(C)C)cc(c1OCCNC(=S)NN=Cc1ccccc1O)C2` [Ligand L, 5, 11, 17, 23-tetra-tert-butyl-26, 28-dihydroxy-25, 27-bis(2(2-hydroxybenzeledene)thiosemicarbazonoethoxy) calix[4]arene], the melting point was 230 °C (dec.). In data set [3], the “improvement of MIC in comparison with thiosemicarbazide equivalent” value came out at 8 fold, the MIC stood at 31.2 µg/mL (≈ 28.6 µM) and the MBC turned out to be 31.2 µg/mL (≈ 28.6 µM). In addition, the “antifungal activity” value in data set [7] is recorded as “strong”. In addition, in [7] (Candida albicans, ATCC10231, 24 h, read-out: MIC), the MIC was 31.2 µg/mL (≈ 28.6 µM). This compound yielded an MBC in data set [7] (Candida albicans, ATCC10231, micro-broth dilution) of 125 µg/mL (≈ 115 µM). Further, the “antifungal activity” value in data set [7] (listed as thiosemicarbazone schiff-base ligand) is “significant antifungal activity”. The half-inhibitory concentration (IC50) in data set [1] was more than 200 µg/mL. Also, the IC50 in data set [2] is less than 25 µg/mL. In data set [8], the “morphology of cell nuclei (DAPI-stained cells)” value is “deformed and fragmented nuclei”. In addition, the “improvement of MIC in comparison with thiosemicarbazide equivalent” value in data set [4] turned out to be 2 fold. This compound gave an MIC in data set [4] (Pseudomonas aeruginosa) of 31.2 µg/mL (≈ 28.6 µM). In data set [6], this compound showed a minimum inhibitory concentration (MIC) of 31.2 µg/mL (≈ 28.6 µM).

In the case of `CN(Cc1cnc2nc(N)nc(N)c2n1)c1ccc(C(=O)N[C@@H](CCC(=O)O)C(=O)O)cc1` [MTX, Methotrexate], in [1], the IC50 was 14.5 µg/mL (≈ 31.9 µM) and the “anti-cancer effect” value was “strong anti-cancer effects”. Besides, in data set [2], the IC50 amounted to 7.9 µg/mL (≈ 17.4 µM) and the “anti-cancer effect” value was “strong anti-cancer effects”.

As to `C[C@@H]1[C@H](O)[C@@H](C)/C=C/C=C/CC/C=C/C=C/C=C/C=C/C(O[C@H]2O[C@H](C)[C@@H](O)[C@H](N)[C@@H]2O)CC2O[C@](O)(CC(O)C(O)CCC(O)CC(O)CC(O)CC(=O)O[C@H]1C)CC(O)C2C(=O)O` (stereo partly shown) [Nystatin], the MIC in data set [9] was 0.625 µg/mL (≈ 0.675 µM); in [7] (24 h), 1.25 µg/mL (≈ 1.35 µM).

Take “Bisthiosemicarbazide-substituted p-tert-butylcalix[4]arene [thiosemicarbazide ligand]”: the “antifungal activity” value in [10] is listed as “resistant”. The IC50 in data set [11] is more than 200 µg/mL.

Broadly, the IC50 is the concentration at which inhibition is half-maximal. Broadly, the MIC is the lowest concentration that inhibits growth of the organism. The term melting point denotes the temperature of the solid-liquid transition.
